Results published in patent publication US8063218B2, “Imidazopyridine inhibitors of IAP” (Genentech, Inc., priority 2006, dated 2011).

molecular target: T1, MLXBIR3SG (Homo sapiens, UniProt Q96CA5, S150G); experiment: Fluorescence Polarization Peptide Binding Assay (competition with AVP-diPhe-FAM probe); conditions: competition: MLXBIR3SG at 30 nM, 5 nM AVP-diPhe-FAM probe; Ki determined from the IC50 values
T1 sequence (Q96CA5 with tags, fused parts or gaps S150G limits assumed): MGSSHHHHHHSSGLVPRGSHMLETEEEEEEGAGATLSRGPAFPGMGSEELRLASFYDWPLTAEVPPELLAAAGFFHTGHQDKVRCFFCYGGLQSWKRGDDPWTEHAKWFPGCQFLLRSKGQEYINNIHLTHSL
Protocol: In the following experiments was used a chimeric BIR domain referred to as MLXBIR3SG in which 11 of 110 residues correspond to those found in XIAP-BIR3, while the remainder correspond to ML-IAP-BIR. […] The improved caspase-9 inhibition of the chimeric BIR domain MLXBIR3SG has been correlated with increased inhibition of doxorubicin-induced apoptosis when transfected into MCF7 cells. MLXBIR3SG sequence:
Fluorescence Polarization Peptide Binding Assay
Polarization experiments were performed on an Analyst HT 96-384 (Molecular Devices Corp.) according to the procedure of Keating, S. M., Marsters, J, Beresini, M., Ladner, C., Zioncheck, K., Clark, K., Arellano, F., and Bodary., S. (2000) in Proceedings of SPIE: In Vitro Diagnostic Instrumentation (Cohn, G. E., Ed.) pp 128-137, Bellingham, Wash. Samples for fluorescence polarization affinity measurements were prepared by addition of 1:2 serial dilutions starting at a final concentration of 5 μM of MLXBIR3SG in polarization buffer (50 mM Tris [pH 7.2], 120 mM NaCl, 1% bovine globulins 5 mM DTT and 0.05% octylglucoside) to 5-carboxyflourescein-conjugated AVPdi-Phe-NH2 (AVP-diPhe-FAM) at 5 nM final concentration.
The reactions were read after an incubation time of 10 minutes at room temperature with standard cut-off filters for the fluorescein fluorophore (λex=485 nm; λem=530 nm) in 96-well black HE96 plates (Molecular Devices Corp.). Fluorescence values were plotted as a function of the protein concentration, and the IC50s were obtained by fitting the data to a 4-parameter equation using Kaleidograph software (Synergy software, Reading, Pa.). Competition experiments were performed by addition of the MLXBIR3SG at 30 nM to wells containing 5 nM of the AVP-diPhe-FAM probe as well as 1:3 serial dilutions of antagonist compounds starting at a concentration of 300 μM in the polarization buffer. Samples were read after a 10-minute incubation. Fluorescence polarization values were plotted as a function of the antagonist concentration, and the IC50 values were obtained by fitting the data to a 4-parameter equation using Kaleidograph software (Synergy software, Reading, Pa.). Inhibition constants (Ki) for the antagonists were determined from the IC50 values.

Row | SMILES | Ki [nM]
1 | CN[C@@H](C)C(=O)N[C@H](C(=O)N1CCC[C@H]1c1cn2c(-c3ccccc3)cccc2n1)C1CCOCC1 [Compound 1] | 89.1
2 | CN[C@@H](C)C(=O)N[C@H](C(=O)N1CCC[C@H]1c1cn2cccc(-c3ccc(N(C)C)cc3)c2n1)C1CCOCC1 [Compound 7] | 18900
3 | CN[C@@H](C)C(=O)N[C@H](C(=O)N1CCC[C@H]1c1cn2cccc(-c3cccc4ccccc34)c2n1)C1CCOCC1 [Compound 20] | 1830
4 | CN[C@@H](C)C(=O)N[C@H](C(=O)N1CCC[C@H]1c1cn2cccc(-c3ccc([N+](=O)[O-])cc3)c2n1)C1CCOCC1 [Compound 8] | 2310
